# Results published in patent publication EP3727588B1, “ACTIVATOR PEPTIDES OF THE ENZYME ADAM 10 AND RELATED USES IN THE TREATMENT OF ALZHEIMER'S DISEASE” (UNIVERSITA' DEGLI STUDI DI MILANO, priority 2017, dated 2019).
# Where “and” joins values, the source holds several entries; their conditions need not be identical. Identical values can stand only once. Peptide text beside a SMILES is read from it.
# Key:
# ADAM10/AP2 complex = biological target: T1, ADAM10/AP2 complex (Rattus norvegicus, UniProt P62944); test: co-immunoprecipitation of ADAM10 with AP2 subunits in primary cultures of hippocampal neurons; type: cell-based
# T1 construct: endogenous in cells; host or cells: primary hippocampal neurons of rat embryos, DIV14
# T1 sequence (P18484 whole entry): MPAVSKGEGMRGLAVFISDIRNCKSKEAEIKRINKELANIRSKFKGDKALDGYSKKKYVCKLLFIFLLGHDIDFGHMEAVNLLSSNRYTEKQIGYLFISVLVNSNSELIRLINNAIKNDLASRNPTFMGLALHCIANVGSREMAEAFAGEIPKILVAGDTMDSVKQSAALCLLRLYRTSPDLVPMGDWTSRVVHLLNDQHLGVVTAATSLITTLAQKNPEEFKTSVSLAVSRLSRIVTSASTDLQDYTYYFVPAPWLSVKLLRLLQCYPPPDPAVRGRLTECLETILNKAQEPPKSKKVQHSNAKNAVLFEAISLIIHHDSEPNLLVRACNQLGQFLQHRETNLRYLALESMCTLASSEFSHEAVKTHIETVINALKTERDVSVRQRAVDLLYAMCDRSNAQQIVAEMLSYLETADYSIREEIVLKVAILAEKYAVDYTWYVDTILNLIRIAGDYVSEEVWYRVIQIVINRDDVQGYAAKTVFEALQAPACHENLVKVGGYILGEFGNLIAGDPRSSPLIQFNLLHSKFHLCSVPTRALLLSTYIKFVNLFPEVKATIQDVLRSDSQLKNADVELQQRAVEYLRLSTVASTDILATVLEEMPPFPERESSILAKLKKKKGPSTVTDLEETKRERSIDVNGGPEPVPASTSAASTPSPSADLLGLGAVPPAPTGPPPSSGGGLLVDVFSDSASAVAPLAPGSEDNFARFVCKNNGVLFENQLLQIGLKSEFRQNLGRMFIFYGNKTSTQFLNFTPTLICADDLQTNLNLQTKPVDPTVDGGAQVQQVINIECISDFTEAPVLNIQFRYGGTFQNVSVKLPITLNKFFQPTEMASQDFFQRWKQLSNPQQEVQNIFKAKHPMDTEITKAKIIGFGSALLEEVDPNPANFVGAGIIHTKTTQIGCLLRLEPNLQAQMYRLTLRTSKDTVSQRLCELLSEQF
# T1 sequence (P62744 whole entry, further chain): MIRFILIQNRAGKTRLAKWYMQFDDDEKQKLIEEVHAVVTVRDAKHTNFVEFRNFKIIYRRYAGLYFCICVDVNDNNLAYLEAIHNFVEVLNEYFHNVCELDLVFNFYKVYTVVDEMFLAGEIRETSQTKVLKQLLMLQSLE
# T1 sequence (P84092 whole entry, further chain): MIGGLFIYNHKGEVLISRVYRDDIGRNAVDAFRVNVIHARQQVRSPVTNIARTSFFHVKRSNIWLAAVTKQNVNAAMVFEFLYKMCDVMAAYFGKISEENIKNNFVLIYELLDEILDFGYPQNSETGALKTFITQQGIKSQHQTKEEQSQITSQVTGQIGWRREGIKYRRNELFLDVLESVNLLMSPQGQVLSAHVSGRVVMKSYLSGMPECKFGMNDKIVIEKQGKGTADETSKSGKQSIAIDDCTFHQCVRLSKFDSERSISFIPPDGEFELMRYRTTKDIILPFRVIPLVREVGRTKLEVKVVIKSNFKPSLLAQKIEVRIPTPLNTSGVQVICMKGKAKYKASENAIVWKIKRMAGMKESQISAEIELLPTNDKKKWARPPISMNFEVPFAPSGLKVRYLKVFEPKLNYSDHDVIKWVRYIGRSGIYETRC
# T1 sequence (P62944 whole entry): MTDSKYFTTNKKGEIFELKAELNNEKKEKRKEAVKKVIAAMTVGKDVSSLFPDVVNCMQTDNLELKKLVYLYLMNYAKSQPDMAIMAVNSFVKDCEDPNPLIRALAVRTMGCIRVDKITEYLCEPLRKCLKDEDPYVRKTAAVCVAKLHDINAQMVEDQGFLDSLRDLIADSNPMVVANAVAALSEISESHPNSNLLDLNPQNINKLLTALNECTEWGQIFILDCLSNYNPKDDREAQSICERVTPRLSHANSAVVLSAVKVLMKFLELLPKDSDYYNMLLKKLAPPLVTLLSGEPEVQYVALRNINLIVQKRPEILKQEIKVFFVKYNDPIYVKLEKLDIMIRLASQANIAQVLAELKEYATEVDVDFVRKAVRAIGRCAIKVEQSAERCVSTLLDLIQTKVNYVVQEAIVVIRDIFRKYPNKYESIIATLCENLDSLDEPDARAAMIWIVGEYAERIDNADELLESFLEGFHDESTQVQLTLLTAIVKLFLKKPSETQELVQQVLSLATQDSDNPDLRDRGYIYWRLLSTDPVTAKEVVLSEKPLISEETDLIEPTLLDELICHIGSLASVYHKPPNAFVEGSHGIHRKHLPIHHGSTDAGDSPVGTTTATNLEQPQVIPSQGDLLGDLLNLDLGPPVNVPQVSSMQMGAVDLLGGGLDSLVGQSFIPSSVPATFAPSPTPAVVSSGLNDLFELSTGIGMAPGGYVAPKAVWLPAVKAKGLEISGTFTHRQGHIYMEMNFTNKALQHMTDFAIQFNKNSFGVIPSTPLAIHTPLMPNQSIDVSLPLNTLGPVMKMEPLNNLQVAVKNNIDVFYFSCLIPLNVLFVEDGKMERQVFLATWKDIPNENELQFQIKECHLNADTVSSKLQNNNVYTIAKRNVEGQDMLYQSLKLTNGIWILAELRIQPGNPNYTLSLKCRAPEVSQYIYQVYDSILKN
# Protocol: The primary cultures were prepared from hippocampi of rat embryos as described in [20]. The cultures were grown in media containing Neurobasal (Life Technologies), B27 2% (Life Technologies), GlutaMAX 1% (Life Technologies) and Penicillin/Streptomycin 1% (Pen/Strep; Life Technologies), a 37 °C with 95% humidity and 5% CO2 for 14 days. The cells were treated by diluting the peptides in the complete growth medium, at a final concentration of 1 µM. The treatment was performed for 30 minutes at 37°C, then the neurons were lysed.
# For the co-immunoprecipitation experiments, aliquots of 40-100 µg of lysate were incubated at 4°C in RIA 1X buffer (NaCl 200 mM, EDTA 10 mM, Na2HPO4 10 mM, Nonidet P-40, 0.5% and 0.1% SDS) in a final volume of 150 µl with 1-2 µg of antibody. The following day the protein complex A/G (Santa Cruz Biotechnology) was added, conjugated with agarose marbles, and the incubation was continued for 2 hours. After three washes with RIA buffer the samples were loaded onto SDS-PAGE and analysed through Western Blot.
# The quantization of the Western Blot analyses was performed through an image analysis program (ImageLab -BioRad). The levels of proteins were expressed as optical density (OD) related to the different measurements and were normalized on respective tubulin levels.
# After 30 minutes, the cells were processed and the cell lysate was used for performing the co-IP analyses.
# [1] = test system: dendritic spines of the hippocampal neurons; test: dendritic spine morphology and density in hippocampus, C57BL/6 mice; type: in vivo; conditions: 14 days' treatment
# Protocol: (§1) C57/BL6 adult mice were treated for 14 days with daily intraperitoneal injection of saline solution or peptides at a dose of 3 nmol/g (6-10 animals per experimental group). The animals were maintained in an enclosure at 25 ± 2 °C with an alternating light/dark cycle of 12 hours and had free access to water and food in the form of pellets (standard diet).
# For the dendritic spine analysis, the protocol used is the one previously described by Kim et al, and envisages the use of DilDye lipophilic tracer (Invitrogen) to allow the dendritic spines to be viewed under the confocal microscope. The analysis of the dimensions and morphology of the spines was performed with ImageJ software.
# The spines were classified, based on their morphology, into three different categories: thin, stubby (without a well-defined "neck") and mushroom shaped. To evaluate the possible effect induced by PEP3 on the spine morphology, two animals for each experimental group were perfused after 14 days of treatment and the brain was post-fixed in PFA and cut with a vibratome. To view the dendritic spines the lipophilic tracer DilDye was used. From the images acquired from the confocal microscope the number, length and width of the head of the dendritic spines of the hippocampal neurons were measured.
# [2] = blood count and platelet count after 14 days' treatment; type: in vivo, mice; set-up: key to Aggregate s: +, ++, +++ considering the presence of platelet aggregates detected in the blood smear that make the analysis difficult; +, ++, +++ considering the presence of platelet aggregates detected in the blood smear that make the analysis difficult; +, ++, +++ considering the presence of platelet aggregates detected in the blood smear that make the analysis difficult; key to Estimate Plt: A= appropriate platelet estimate
# Protocol: as §1
# The blood, collected through cardiac puncture, was analysed with a laser counter (ADVIA 120, Siemens) using specific software for the murine species. From each sample a blood smear was prepared, stained with the May Grünwald-Giemsa method, and used for the morphological analysis of the leukocytes, the red blood cells and the platelet estimate. After the automatic counting of the cells and the preparation of the smear, all the samples were centrifuged and the plasma was transferred into separate test tubes. The analysis of the plasma samples was performed through automatic spectrophotometer (ILAB-300, Instrumentation Laboratory). All the results were compared with the values provided by the company Charles River for mice of the same strain and age.
# The range values are provided by Charles River for C57BL mice aged between 56-70 days, whose blood was collected by cardiac puncture after euthanasia.
# [3] = primary cultures of neurons, 1µM, 30 min
# [4] = primary hippocampal neurons DIV 14, 1 µM, 30 minutes
# [5] = individual animal, 14 days, daily intraperitoneal 3 nmol/g
structure (smiles),measurement,setting,value
N=C(N)NCCC[C@H](NC(=O)CNC(=O)[C@@H](N)Cc1ccc(O)cc1)C(=O)N[C@@H](CCCCN)C(=O)N[C@@H](CCCCN)C(=O)N[C@@H](CCCNC(=N)N)C(=O)N[C@@H](CCCNC(=N)N)C(=O)N[C@@H](CCC(N)=O)C(=O)N[C@@H](CCCNC(=N)N)C(=O)N[C@@H](CCCNC(=N)N)C(=O)N[C@@H](CCCNC(=N)N)C(=O)NCC(=O)NCC(=O)N[C@@H](CO)C(=O)NCC(=O)N[C@@H](CCC(N)=O)C(=O)N1CCC[C@H]1C(=O)N1CCC[C@H]1C(=O)N[C@@H](CCCNC(=N)N)C(=O)N[C@@H](CCC(N)=O)C(=O)N[C@@H](CCCNC(=N)N)C(=O)N1CCC[C@H]1C(=O)N[C@@H](CCCNC(=N)N)C(=O)NCC(=O)O [PEP3] (H-YGRKKRRQRRRGGSGQPPRQRPRG-OH),"PEP/inPEP OD, ADAM10/AP2 complex, µ2",ADAM10/AP2 complex; [3],22.43 ± 1.25%
same,"PEP/inPEP OD, ADAM10/AP2 complex, α-adaptin",ADAM10/AP2 complex; [3],10.84 ± 5.61%
same,"reduction in the levels of interaction between ADAM10 and the complex AP2, subunit µ2",ADAM10/AP2 complex; [4],78%
same,"reduction in the levels of interaction between ADAM10 and the complex AP2, subunit α-adaptin",ADAM10/AP2 complex; [4],89%
same,density of the dendritic spines,[1],10.30±1.11 n. of spines/10µm
same,length of mushroom shaped spines,[1],0.73±0.02
same,length of the spines,[1],0.75±0.02 µm
same,percentage of mushroom shaped spines,[1],28.83 ± 2.18%
same,percentage of stubby spines,[1],45.25 ± 2.03%
same,percentage of thin spines,[1],25.92 ± 1.68%
same,width of the head of spines,[1],0.75±0.01 µm
same,(Ht),[2]; group mean,46.2%
same,Hb,[2]; group mean,11.8 g/dL
same,Mean Corpuscula r Hb (MCH),[2]; group mean,13.5 pg
same,Mean Corpuscula r Hb Conc. MCHC,[2]; group mean,25.6%
same,Platelet count,[2]; group mean,999000 µL⁻¹
same,Red blood cells,[2]; group mean,8.74e+06 µL⁻¹
same,Red cell distribution width (RDW),[2]; group mean,19.5%
same,Vol. Mean Corp. Vol. (MCV),[2]; group mean,52.9 fL
same,(Ht),[2]; group median,-46.9%
same,Hb,[2]; group median,-11.9 g/dL
same,Mean Corpuscula r Hb Conc. MCHC,[2]; group median,-25.8%
same,Platelet count,[2]; group median,-1.082e+06 µL⁻¹
same,Red blood cells,[2]; group median,-8.8e+06 µL⁻¹
same,Red cell distribution width (RDW),[2]; group median,-19.7%
same,Vol. Mean Corp. Vol. (MCV),[2]; group median,-53.1 fL
same,Estimate Plt,"[2]; individual animal, blood smear, first part of cell",A
same,Aggregate s,"[2]; individual animal, blood smear, second part of cell",+++
same,(Ht),[2]; [5],41.5% and 47.4% and 48.5% and 48% and 46.3% and 45.7%
same,Hb,[2]; [5],10.9 g/dL and 11.7 g/dL and 12.5 g/dL and 11.9 g/dL (3×)
same,Mean Corpuscula r Hb (MCH),[2]; [5],13.4 Pg (2×) and 13.8 Pg and 13.3 Pg and 13.5 Pg and 13.6 Pg
same,Mean Corpuscula r Hb Conc. MCHC,[2]; [5],26.3% and 24.7% and 25.8% and 24.8% and 25.7% and 26%
same,Platelet count,[2]; [5],861000 µL⁻¹ and 711000 µL⁻¹ and 1.333e+06 µL⁻¹ and 391000 µL⁻¹ and 1.302e+06 µL⁻¹ and 1.394e+06 µL⁻¹
same,Red blood cells,[2]; [5],8.14e+06 µL⁻¹ and 8.75e+06 µL⁻¹ and 9.04e+06 µL⁻¹ and 8.94e+06 µL⁻¹ and 8.84e+06 µL⁻¹ and 8.72e+06 µL⁻¹
same,Red cell distribution width (RDW),[2]; [5],18.7% and 19.3% and 19.9% (2×) and 19.7% (2×)
same,Vol. Mean Corp. Vol. (MCV),[2]; [5],51 fL and 54.2 fL and 53.7 fL (2×) and 52.4 fL (2×)
